Test results reported in the supplement of paper PMC10307832.

What was measured:
Assay in all cases: relative viability (nuclei count vs DMSO), 5 days (fraction); higher = more cells survive
[1] = compound: CN1C=C(C2=CC=CC=C21)/C=C\3/C4=C(C=CC=N4)NC3=O + CCNC(=O)c1noc(-c2cc(C(C)C)c(O)cc2O)c1-c1ccc(CN2CCOCC2)cc1 [Luminespib] (partner 0.01 µM)
Procedure, shortened: (§1)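 Relative viability equals treated-well nuclei counts divided by vehicle-well nuclei counts. Counts came from 4× images of lung cancer cell lines grown in 1536-well plates for 5 days after pin-tool dosing on the day after seeding. Dosing used one drug alone or a fixed anchor-drug dose plus five library-drug doses (not always all listed) in √10 steps, and values are medians of duplicate plates.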

Trametinib + Palbociclib = compound: CC(=O)Nc1cccc(-n2c(=O)n(C3CC3)c(=O)c3c(Nc4ccc(I)cc4F)n(C)c(=O)c(C)c32)c1 [Trametinib] + CC(=O)c1c(C)c2cnc(Nc3ccc(N4CCNCC4)cn3)nc2n(C2CCCC2)c1=O [Palbociclib] (partner 0.5 µM)
Procedure, shortened: as §1

Trametinib + Bortezomib = compound: CC(=O)Nc1cccc(-n2c(=O)n(C3CC3)c(=O)c3c(Nc4ccc(I)cc4F)n(C)c(=O)c(C)c32)c1 [Trametinib] + CC(C)C[C@H](NC(=O)[C@H](Cc1ccccc1)NC(=O)c1cnccn1)B(O)O [Bortezomib] (partner 0.002 µM)
Procedure, shortened: as §1

Trametinib + Pemetrexed = compound: CC(=O)Nc1cccc(-n2c(=O)n(C3CC3)c(=O)c3c(Nc4ccc(I)cc4F)n(C)c(=O)c(C)c32)c1 [Trametinib] + Nc1nc2[nH]cc(CCc3ccc(C(=O)N[C@@H](CCC(=O)O)C(=O)O)cc3)c2c(=O)[nH]1 [Pemetrexed] (partner 0.2 µM)
Procedure, shortened: as §1

Cell Line	relative viability ([1]; first compound 0.02 µM)	relative viability ([1]; first compound 0.06325 µM)	relative viability ([1]; first compound 0.2 µM)	relative viability ([1]; first compound 0.6325 µM)	relative viability ([1]; first compound 2 µM)	relative viability (Trametinib + Palbociclib; first compound 0.0025 µM)	relative viability (Trametinib + Palbociclib; first compound 0.007906 µM)	relative viability (Trametinib + Palbociclib; first compound 0.025 µM)	relative viability (Trametinib + Palbociclib; first compound 0.07906 µM)	relative viability (Trametinib + Palbociclib; first compound 0.25 µM)	relative viability (Trametinib + Bortezomib; first compound 0.0025 µM)	relative viability (Trametinib + Bortezomib; first compound 0.007906 µM)	relative viability (Trametinib + Bortezomib; first compound 0.025 µM)	relative viability (Trametinib + Bortezomib; first compound 0.07906 µM)	relative viability (Trametinib + Bortezomib; first compound 0.25 µM)	relative viability (Trametinib + Pemetrexed; first compound 0.0025 µM)	relative viability (Trametinib + Pemetrexed; first compound 0.007906 µM)	relative viability (Trametinib + Pemetrexed; first compound 0.025 µM)	relative viability (Trametinib + Pemetrexed; first compound 0.07906 µM)	relative viability (Trametinib + Pemetrexed; first compound 0.25 µM)
NCI-H441	0.341	0.341	0.296	0.513	0.36	0.154	0.172	0.132	0.147	0.132	0.474	0.55	0.72	0.475	0.17	0.3	0.306	0.247	0.261	0.285
NCI-H520	0.204	0.24	0.217	0.211	0.229	0.217	0.238	0.199	0.158	0.232	0.612	0.485	0.444	0.44	0.126	0.645	0.69	0.667	0.648	0.533
CAL-12T	0.22	0.561	0.48	0.432	0.381	0.387	0.193	0.179	0.171	0.187	0.784	0.734	0.645	1.43	0.454	1.21	1.15	0.753	0.483	0.589
HCC-827	0.589	0.52	–	0.59	0.756	0.461	0.395	0.423	0.296	0.289	0.943	0.989	0.974	0.92	0.748	0.271	0.271	0.263	0.214	0.235
LC-2-ad	1.05	0.885	1.05	1.22	1.07	0.5	0.452	0.461	0.381	0.404	0.999	0.898	0.928	0.713	0.443	0.271	0.259	0.294	0.274	0.282
NCI-H2170	0.623	0.616	0.626	0.778	0.738	0.4	0.419	–	0.399	0.342	–	–	–	–	–	0.281	0.267	–	0.271	0.237
SW 1573	0.235	0.279	0.327	0.181	0.243	0.36	0.301	0.298	0.158	0.17	0.806	0.514	0.888	0.743	0.417	0.732	0.76	0.538	0.555	0.331
SK-MES-1	0.777	0.557	0.62	0.684	0.699	0.358	0.357	0.319	0.354	0.26	–	–	–	–	–	0.916	0.736	0.664	0.428	0.407
NCI-H1648	–	–	–	–	–	0.251	0.284	0.278	0.336	0.303	–	–	–	–	–	0.676	0.69	0.883	0.752	0.559
NCI-H1793	0.228	0.202	0.204	0.186	0.189	0.277	0.242	0.225	0.213	0.192	–	–	–	–	–	0.617	0.481	0.315	0.365	0.338
NCI-H1299	–	–	–	–	–	–	–	–	–	–	1.04	0.992	0.971	0.955	0.739	–	–	–	–	–
LCLC-97TM1	0.669	0.611	0.82	0.809	0.944	0.166	0.141	0.15	0.13	0.115	0.616	0.482	0.128	0.0773	0.0973	0.188	0.238	0.181	0.176	0.152
NCI-H1915	0.728	0.816	0.894	0.431	0.954	0.477	0.382	0.196	0.19	0.143	0.931	0.816	0.825	0.756	0.139	0.492	0.521	0.313	0.262	0.216
NCI-H661	1.06	0.875	0.946	0.973	0.917	0.429	0.404	0.377	0.311	0.348	0.82	0.689	0.728	0.534	0.54	0.882	0.889	0.821	0.753	0.753
NCI-H2405	0.809	0.603	0.629	0.738	0.74	0.527	0.58	0.419	–	0.281	0.999	0.909	0.657	0.597	0.508	0.995	0.947	0.464	–	0.554
NCI-H2347	–	0.288	0.352	0.339	0.569	0.372	0.363	0.324	0.316	0.291	1.08	0.818	0.338	0.389	0.337	0.425	0.44	0.362	0.302	0.337
NCI-H1651	0.953	0.772	1.02	1.13	1.02	0.489	0.501	0.51	0.459	0.432	0.967	0.9	0.801	0.83	0.43	0.554	0.618	0.426	0.47	0.278
H3255	1.03	1	0.786	0.86	0.77	0.339	0.356	0.357	0.342	0.365	0.814	0.769	0.597	0.42	0.344	0.538	0.506	0.514	0.473	0.463
